Experimental data: patent US10954269B2, “Anti-inflammatory tripeptides” (Dr. August Wolff Gmbh & Co. KG Arzneimittel, priority 2013, dated 2021)

Experiments:
Settings in all cases: substance 10^−9M
[1] = system: human keratinocyte cell line (HaCaT); experiment: Cytokine secretion on protein level in activated human keratinocyte cell line HaCaT (13-plex FACS / Luminex, supernatant); type: cell-based
Method in brief: (§1)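 Primary T-cells from peripheral blood of healthy volunteers, or HaCaT cells, were activated with PMA/Ionomycin or IFN-γ for 48 h and treated with tripeptides. Supernatants were collected 48 h and 72 h after stimulation and cytokines (IL-1, IL-2, IL-6, IL-12p70, IL-17, IFN-γ, TNF-α) were measured by 13-plex FACS.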

primary human T-cells = experiment: Cytokine secretion on protein level in activated primary human T-cells (13-plex FACS / Luminex, supernatant); type: cell-based
Method in brief: as §1

primary murine T-cells = experiment: Cytokine secretion on protein level in activated primary murine T-cells (13-plex FACS / Luminex, supernatant); type: cell-based, C57BL/6 mice
Method in brief: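 T-cells from secondary lymphatic organs of naïve C57BL/6 mice, stimulated with PMA/Ionomycin or IFN-γ; supernatant cytokines measured by 13-plex FACS 48 h and 72 h after stimulation. In another run, PMA/Ionomycin-stimulated cells received compounds at 10^−7, 10^−9 and 10^−11 M, with IFN-γ, IL-17 and IL-10 measured by Luminex.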

[2] = HaCaT stimulated with PMA/Ionomycin
[3] = primary human T-cells stimulated with IFN-γ
[4] = primary human T-cells stimulated with PBS
[5] = primary human T-cells stimulated with PMA/Ionomycin
[6] = primary murine T-cells stimulated with IFN-γ
[7] = primary murine T-cells stimulated with PBS
[8] = primary murine T-cells stimulated with PMA/Ionomycin

SMILES: COc1c(C)c2c(c(O)c1C/C=C(\C)CCC(=O)OCCN1CCOCC1)C(=O)OC2 [MMF, mycophenolate mofetil, reference compound]
- IL-1 cytokine concentration ([1]; HaCaT stimulated with IFN-γ): 0 pg/mL
- IL-2 cytokine concentration ([1]; HaCaT stimulated with IFN-γ): 0 pg/mL
- IL-4 cytokine concentration ([1]; HaCaT stimulated with IFN-γ): 33.01 pg/mL
- IL-5 cytokine concentration ([1]; HaCaT stimulated with IFN-γ): 0 pg/mL
- IL-6 cytokine concentration ([1]; HaCaT stimulated with IFN-γ): 239.05 pg/mL
- IL-9 cytokine concentration ([1]; HaCaT stimulated with IFN-γ): 0 pg/mL
- IL-10 cytokine concentration ([1]; HaCaT stimulated with IFN-γ): 0 pg/mL
- IL-12 cytokine concentration ([1]; HaCaT stimulated with IFN-γ): 0 pg/mL
- IL-13 cytokine concentration ([1]; HaCaT stimulated with IFN-γ): 0 pg/mL
- IL-17 cytokine concentration ([1]; HaCaT stimulated with IFN-γ): 58.48 pg/mL
- IL-22 cytokine concentration ([1]; HaCaT stimulated with IFN-γ): 0 pg/mL
- TNF-α cytokine concentration ([1]; HaCaT stimulated with IFN-γ): 0 pg/mL
- IFN-γ cytokine concentration ([1]; HaCaT stimulated with PBS): 0 pg/mL
- IL-1 cytokine concentration ([1]; HaCaT stimulated with PBS): 0 pg/mL
- IL-2 cytokine concentration ([1]; HaCaT stimulated with PBS): 0 pg/mL
- IL-4 cytokine concentration ([1]; HaCaT stimulated with PBS): 120.89 pg/mL
- IL-5 cytokine concentration ([1]; HaCaT stimulated with PBS): 0 pg/mL
- IL-6 cytokine concentration ([1]; HaCaT stimulated with PBS): 39.58 pg/mL
- IL-9 cytokine concentration ([1]; HaCaT stimulated with PBS): 0 pg/mL
- IL-10 cytokine concentration ([1]; HaCaT stimulated with PBS): 33.26 pg/mL
- IL-12 cytokine concentration ([1]; HaCaT stimulated with PBS): 0 pg/mL
- IL-13 cytokine concentration ([1]; HaCaT stimulated with PBS): 0 pg/mL
- IL-17 cytokine concentration ([1]; HaCaT stimulated with PBS): 0 pg/mL
- IL-22 cytokine concentration ([1]; HaCaT stimulated with PBS): 0 pg/mL
- TNF-α cytokine concentration ([1]; HaCaT stimulated with PBS): 0 pg/mL
- IFN-γ cytokine concentration [1, 2]: 0 pg/mL
- IL-1 cytokine concentration [1, 2]: 0 pg/mL
- IL-2 cytokine concentration [1, 2]: 0 pg/mL
- IL-4 cytokine concentration [1, 2]: 98.71 pg/mL
- IL-5 cytokine concentration [1, 2]: 0 pg/mL
- IL-6 cytokine concentration [1, 2]: 116.51 pg/mL
- IL-9 cytokine concentration [1, 2]: 0 pg/mL
- IL-10 cytokine concentration [1, 2]: 66.23 pg/mL
- IL-12 cytokine concentration [1, 2]: 0 pg/mL
- IL-13 cytokine concentration [1, 2]: 0 pg/mL
- IL-17 cytokine concentration [1, 2]: 0 pg/mL
- IL-22 cytokine concentration [1, 2]: 0 pg/mL
- TNF-α cytokine concentration [1, 2]: 0 pg/mL
- IL-1 cytokine concentration (primary human T-cells; [3]): 0 pg/mL
- IL-2 cytokine concentration (primary human T-cells; [3]): 0 pg/mL
- IL-4 cytokine concentration (primary human T-cells; [3]): 0 pg/mL
- IL-5 cytokine concentration (primary human T-cells; [3]): 0 pg/mL
- IL-6 cytokine concentration (primary human T-cells; [3]): 62.15 pg/mL
- IL-9 cytokine concentration (primary human T-cells; [3]): 0 pg/mL
- IL-10 cytokine concentration (primary human T-cells; [3]): 0 pg/mL
- IL-12 cytokine concentration (primary human T-cells; [3]): 0 pg/mL
- IL-13 cytokine concentration (primary human T-cells; [3]): 0 pg/mL
- IL-17 cytokine concentration (primary human T-cells; [3]): 0 pg/mL
- IL-22 cytokine concentration (primary human T-cells; [3]): 0 pg/mL
- TNF-α cytokine concentration (primary human T-cells; [3]): 0 pg/mL
- IFN-γ cytokine concentration (primary human T-cells; [4]): 0 pg/mL
- IL-1 cytokine concentration (primary human T-cells; [4]): 0 pg/mL
- IL-2 cytokine concentration (primary human T-cells; [4]): 39.68 pg/mL
- IL-4 cytokine concentration (primary human T-cells; [4]): 0 pg/mL
- IL-5 cytokine concentration (primary human T-cells; [4]): 0 pg/mL
- IL-6 cytokine concentration (primary human T-cells; [4]): 94.62 pg/mL
- IL-9 cytokine concentration (primary human T-cells; [4]): 28.13 pg/mL
- IL-10 cytokine concentration (primary human T-cells; [4]): 79.26 pg/mL
- IL-12 cytokine concentration (primary human T-cells; [4]): 0 pg/mL
- IL-13 cytokine concentration (primary human T-cells; [4]): 79.09 pg/mL
- IL-17 cytokine concentration (primary human T-cells; [4]): 71.42 pg/mL
- IL-22 cytokine concentration (primary human T-cells; [4]): 0 pg/mL
- TNF-a cytokine concentration (primary human T-cells; [4]): 53.91 pg/mL
- IFN-γ cytokine concentration (primary human T-cells; [5]): 9491.25 pg/mL
- IL-1 cytokine concentration (primary human T-cells; [5]): 505.05 pg/mL
- IL-2 cytokine concentration (primary human T-cells; [5]): 1498.52 pg/mL
- IL-4 cytokine concentration (primary human T-cells; [5]): 29.49 pg/mL
- IL-5 cytokine concentration (primary human T-cells; [5]): 309.88 pg/mL
- IL-6 cytokine concentration (primary human T-cells; [5]): 1198.6 pg/mL
- IL-9 cytokine concentration (primary human T-cells; [5]): 339.89 pg/mL
- IL-10 cytokine concentration (primary human T-cells; [5]): 814.79 pg/mL
- IL-12 cytokine concentration (primary human T-cells; [5]): 0 pg/mL
- IL-13 cytokine concentration (primary human T-cells; [5]): 1072.09 pg/mL
- IL-17 cytokine concentration (primary human T-cells; [5]): 1097.19 pg/mL
- IL-22 cytokine concentration (primary human T-cells; [5]): 0 pg/mL
- TNF-a cytokine concentration (primary human T-cells; [5]): 3987.21 pg/mL
- IL-1 cytokine concentration (primary murine T-cells; [6]): 100.02 pg/mL
- IL-2 cytokine concentration (primary murine T-cells; [6]): 79.63 pg/mL
- IL-4 cytokine concentration (primary murine T-cells; [6]): 59.48 pg/mL
- IL-5 cytokine concentration (primary murine T-cells; [6]): 254.61 pg/mL
- IL-6 cytokine concentration (primary murine T-cells; [6]): 111.95 pg/mL
- IL-10 cytokine concentration (primary murine T-cells; [6]): 936.45 pg/mL
- IL-13 cytokine concentration (primary murine T-cells; [6]): 0 pg/mL
- IL-17 cytokine concentration (primary murine T-cells; [6]): 61.58 pg/mL
- IL-21 cytokine concentration (primary murine T-cells; [6]): 0 pg/mL
- IL-22 cytokine concentration (primary murine T-cells; [6]): 55.98 pg/mL
- IL-27 cytokine concentration (primary murine T-cells; [6]): 40.8 pg/mL
- TNF-α cytokine concentration (primary murine T-cells; [6]): 33.64 pg/mL
- IFN-γ cytokine concentration (primary murine T-cells; [7]): 0 pg/mL
- IL-1 cytokine concentration (primary murine T-cells; [7]): 62.31 pg/mL
- IL-2 cytokine concentration (primary murine T-cells; [7]): 100.77 pg/mL
- IL-4 cytokine concentration (primary murine T-cells; [7]): 61.12 pg/mL
- IL-5 cytokine concentration (primary murine T-cells; [7]): 337.89 pg/mL
- IL-6 cytokine concentration (primary murine T-cells; [7]): 90.56 pg/mL
- IL-10 cytokine concentration (primary murine T-cells; [7]): 745.12 pg/mL
- IL-13 cytokine concentration (primary murine T-cells; [7]): 0 pg/mL
- IL-17 cytokine concentration (primary murine T-cells; [7]): 0 pg/mL
- IL-21 cytokine concentration (primary murine T-cells; [7]): 0 pg/mL
- IL-22 cytokine concentration (primary murine T-cells; [7]): 90.45 pg/mL
- IL-27 cytokine concentration (primary murine T-cells; [7]): 80.11 pg/mL
- TNF-α cytokine concentration (primary murine T-cells; [7]): 88.47 pg/mL
- IFN-γ cytokine concentration (primary murine T-cells; [8]): 1808.99 pg/mL
- IL-1 cytokine concentration (primary murine T-cells; [8]): 158.59 pg/mL
- IL-2 cytokine concentration (primary murine T-cells; [8]): 109.88 pg/mL
- IL-4 cytokine concentration (primary murine T-cells; [8]): 64.89 pg/mL
- IL-5 cytokine concentration (primary murine T-cells; [8]): 200.98 pg/mL
- IL-6 cytokine concentration (primary murine T-cells; [8]): 169.84 pg/mL
- IL-10 cytokine concentration (primary murine T-cells; [8]): 995.6 pg/mL
- IL-13 cytokine concentration (primary murine T-cells; [8]): 0 pg/mL
- IL-17 cytokine concentration (primary murine T-cells; [8]): 67 pg/mL
- IL-21 cytokine concentration (primary murine T-cells; [8]): 0 pg/mL
- IL-22 cytokine concentration (primary murine T-cells; [8]): 111.98 pg/mL
- IL-27 cytokine concentration (primary murine T-cells; [8]): 102.96 pg/mL
- TNF-α cytokine concentration (primary murine T-cells; [8]): 50.14 pg/mL
